Drawing on patent US8299072B2, “Pyrazolylmethylamine compounds as calcium channel modulators and preparation method thereof” (Korea Institute of Science and Technology, priority 2008, dated 2012), this text covers IC50 for 16 compounds.

Structures are written as SMILES.

The target in this assay is T1, α1G T-type calcium channel (Homo sapiens, UniProt O43497).
T1 construct: expressed in transfected cells; host or cells: HEK293 cells stably expressing α1G, selected with G-418; The cell line KCTC 10519BP is named only for the FDSS6000 screen
T1 sequence (O43497 whole entry): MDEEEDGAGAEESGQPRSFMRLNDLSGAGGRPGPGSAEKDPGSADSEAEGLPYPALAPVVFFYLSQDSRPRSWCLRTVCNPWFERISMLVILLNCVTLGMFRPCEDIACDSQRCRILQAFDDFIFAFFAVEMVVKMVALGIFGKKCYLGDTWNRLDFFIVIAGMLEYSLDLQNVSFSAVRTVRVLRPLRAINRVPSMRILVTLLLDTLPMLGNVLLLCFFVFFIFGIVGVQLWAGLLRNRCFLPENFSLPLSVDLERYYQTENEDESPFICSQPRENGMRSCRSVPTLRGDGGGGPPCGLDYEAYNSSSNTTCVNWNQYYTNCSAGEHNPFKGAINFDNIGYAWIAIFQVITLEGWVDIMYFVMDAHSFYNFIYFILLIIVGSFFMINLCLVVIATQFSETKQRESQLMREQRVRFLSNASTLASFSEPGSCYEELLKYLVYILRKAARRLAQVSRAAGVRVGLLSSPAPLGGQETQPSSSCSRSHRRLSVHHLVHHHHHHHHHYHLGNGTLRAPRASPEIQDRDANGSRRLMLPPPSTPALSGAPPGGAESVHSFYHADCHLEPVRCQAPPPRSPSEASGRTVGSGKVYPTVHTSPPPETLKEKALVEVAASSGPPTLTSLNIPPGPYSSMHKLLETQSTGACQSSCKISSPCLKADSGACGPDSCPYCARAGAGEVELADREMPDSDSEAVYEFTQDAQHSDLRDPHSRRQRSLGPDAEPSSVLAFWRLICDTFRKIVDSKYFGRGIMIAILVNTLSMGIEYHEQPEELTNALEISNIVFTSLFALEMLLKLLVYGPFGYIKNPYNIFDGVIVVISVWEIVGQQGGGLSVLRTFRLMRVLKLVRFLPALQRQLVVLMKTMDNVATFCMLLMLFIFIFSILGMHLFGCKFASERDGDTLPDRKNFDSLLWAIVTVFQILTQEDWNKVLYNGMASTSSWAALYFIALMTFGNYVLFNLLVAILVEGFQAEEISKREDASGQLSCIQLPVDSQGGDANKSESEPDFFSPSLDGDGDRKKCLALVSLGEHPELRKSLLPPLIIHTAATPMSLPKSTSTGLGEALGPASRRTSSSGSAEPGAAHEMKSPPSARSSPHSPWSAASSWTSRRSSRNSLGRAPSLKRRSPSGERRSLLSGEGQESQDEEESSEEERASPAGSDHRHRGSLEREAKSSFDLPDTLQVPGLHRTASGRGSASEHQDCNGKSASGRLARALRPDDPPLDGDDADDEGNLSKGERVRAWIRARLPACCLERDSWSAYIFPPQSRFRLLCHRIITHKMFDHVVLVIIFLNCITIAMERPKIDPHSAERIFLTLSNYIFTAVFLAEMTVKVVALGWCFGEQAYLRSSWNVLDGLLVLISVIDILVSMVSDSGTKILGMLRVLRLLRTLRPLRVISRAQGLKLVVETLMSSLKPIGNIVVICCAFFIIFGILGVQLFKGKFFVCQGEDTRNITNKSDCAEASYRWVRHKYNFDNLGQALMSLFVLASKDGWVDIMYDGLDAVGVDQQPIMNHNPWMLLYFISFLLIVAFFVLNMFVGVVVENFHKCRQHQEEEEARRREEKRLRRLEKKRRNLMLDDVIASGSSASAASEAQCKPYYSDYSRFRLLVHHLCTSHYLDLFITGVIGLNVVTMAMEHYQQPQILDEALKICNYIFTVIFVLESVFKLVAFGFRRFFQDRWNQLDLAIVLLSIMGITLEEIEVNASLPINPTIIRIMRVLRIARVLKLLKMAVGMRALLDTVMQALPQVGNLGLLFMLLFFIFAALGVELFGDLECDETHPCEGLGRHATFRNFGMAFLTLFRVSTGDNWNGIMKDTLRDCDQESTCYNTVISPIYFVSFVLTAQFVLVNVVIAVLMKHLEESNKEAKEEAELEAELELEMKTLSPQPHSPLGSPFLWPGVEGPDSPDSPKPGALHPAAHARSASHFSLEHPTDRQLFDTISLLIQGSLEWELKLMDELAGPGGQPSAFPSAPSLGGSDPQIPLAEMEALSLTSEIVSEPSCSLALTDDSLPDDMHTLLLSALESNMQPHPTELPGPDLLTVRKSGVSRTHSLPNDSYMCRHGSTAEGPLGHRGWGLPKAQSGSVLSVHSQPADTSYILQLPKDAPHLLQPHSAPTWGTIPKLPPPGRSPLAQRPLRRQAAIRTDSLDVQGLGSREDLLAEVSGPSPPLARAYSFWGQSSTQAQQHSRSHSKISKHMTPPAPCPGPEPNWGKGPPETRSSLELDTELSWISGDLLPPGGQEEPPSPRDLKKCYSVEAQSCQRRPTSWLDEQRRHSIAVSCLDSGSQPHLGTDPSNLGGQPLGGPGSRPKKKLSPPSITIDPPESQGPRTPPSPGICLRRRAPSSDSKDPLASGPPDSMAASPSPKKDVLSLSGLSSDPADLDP
Description: T-type calcium channel activity by electrophysiological whole-cell patch-clamp technique. The assay is classed as cell-based. The following applies: HEK293 cells stably expressing α1G T-type calcium channels, inhibition of inward peak currents, test pulse −30 mV, holding −100 mV. The protocol:
The novel compounds of the present invention represented by the above formula 1 were tested for their antagonistic activities with regard to T-type calcium channel as follows.
2) Methods for the Measurements of T-Type Calcium Channel Activity Using an Electrophysiological Whole-Cell Patch-Clamp Technique
HEK293 cells stably expressing T-type calcium channels were cultured in DMEM (Dulbecco's modified Eagle's medium) containing 10% (v/v) fetal bovine serum and 1% penicillin/streptomycin (v/v) in humidified 5% CO2 at 36.5° C. Cells expressing α1G T-type calcium channels were selected using G-418 (0.5 mg/mL) in the culture medium. The culture medium was replaced with a fresh one every 3-4 days, and cells were subcultured every week.
Cells were seeded on the coverglass coated with poly-L-lysine (0.5 mg/mL) for the measurements of T-type calcium channel activity 2-7 days prior to the recordings. Whole-cell recordings of T-type calcium channel currents were performed using an EPC-9 patch clamp amplifier (HEKA, Germany). Whole-cell currents were recorded using micropipettes with resistance of 3-4MΩ with the pipette (intracellular) solution containing (in mM): 130 KCl, 11 EGTA, 5 Mg-ATP, and 10 HEPES, pH to 7.4 and with the bath (extracellular) solution containing (in mM): 140 NaCl, 2 CaCl2, and 10 HEPES, pH to 7.4. The inward currents of T-type calcium channels were evoked by the test pulses of −30 mV for 50 ms at a holding potential of −100 mV every 10 seconds.
Each compound was dissolved in dimethylsulfoxide (DMSO) as 10 mM stock solutions and diluted in the bath solution to 10 μM (containing 0.1% DMSO). […] More specifically, each compound was perfused to the bath for about 30-60 seconds, and the inhibition of the inward peak currents by a test compound was calculated as a percent inhibition from which IC50 values were determined.
On the technique in general: The patch-clamp technique gives a direct electrical read-out from membranes.
As for `CC(C)Cc1cc(CNC(=O)CN2CCN(Cc3ccc(C(F)(F)F)cc3)CC2)nn1-c1ccccc1` [Compound No. 16, 3-{[4-(4-trifluoromethylbenzyl)piperazin-1-yl]methylcarboxamido}methyl-5-isobutyl-1-phenyl-1H-pyrazole], the IC50 came to 1.77 ± 0.1 µM.
In the case of `CCCc1cc(CNC(=O)CN2CCN(c3ccccc3)CC2)nn1-c1ccccc1` [Compound No. 27, 3-[(4-phenylpiperazin-1-yl)methylcarboxamido}methyl-5-propyl-1-phenyl-1H-pyrazole], the IC50 is 5.1 ± 0.11 µM.
Turning to `CCCc1cc(CNC(=O)CN2CCN(Cc3ccc4c(c3)OCO4)CC2)nn1-c1ccccc1` [Compound No. 33, 3-[(4-piperonylpiperazin-1-yl)methylcarboxamido]methyl-5-propyl-1-phenyl-1H-pyrazole], the IC50 stood at 9.56 ± 1.42 µM.
With `Cc1cccc(N2CCN(C(=O)CNCc3cc(CC(C)C)n(-c4ccccc4)n3)CC2)c1C` [Compound No. 76, 3-{[4-(2,3-dimethylphenyl)piperazin-1-yl]carbonylmethylamino}methyl-5-isobutyl-1-phenyl-1H-pyrazole], the IC50 was found to be 0.36 ± 0.03 µM.
For `Cc1ccc(N2CCN(C(=O)CNCc3cc(CC(C)C)n(-c4ccccc4)n3)CC2)c(C)c1` [Compound No. 69, 3-{[4-(2,4-dimethylphenyl)piperazin-1-yl]carbonylmethylamino}methyl-5-isobutyl-1-phenyl-1H-pyrazole], the IC50 turned out to be 0.4 ± 0.04 µM.
In the case of `O=C(CN1CCN(c2ccccc2)CC1)NCc1cc(-c2ccco2)n(-c2ccccc2)n1` [Compound No. 11, 3-[(4-phenylpiperazin-1-yl)methylcarboxamido]methyl-5-furyl-1-phenyl-1H-pyrazole], the IC50 worked out at 2.57 ± 0.17 µM.
Take `Cc1cc(CNC(=O)CN2CCN(Cc3cccc(C(F)(F)F)c3)CC2)nn1-c1ccccc1` [Compound No. 5, 3-{[4-(3-trifluoromethyl)benzylpiperazin-1-yl]methylcarboxamido}methyl-5-methyl-1-phenyl-1H-pyrazole]: the IC50 was 1.42 ± 0.16 µM.
For the compound `Cc1cc(CNC(=O)CN2CCN(Cc3ccc(Cl)c(Cl)c3)CC2)nn1-c1ccccc1` [Compound No. 6, 3-{[4-(3,4-dichlorobenzyl)piperazin-1-yl]methylcarboxamido}methyl-5-methyl-1-phenyl-1H-pyrazole], the IC50 amounted to 1.42 ± 0.16 µM.
On to `CCCc1cc(CNC(=O)CN2CCN(Cc3ccc(C(F)(F)F)cc3)CC2)nn1-c1ccccc1` [Compound No. 32, 3-{[4-(4-trifluoromethyl)benzylpiperazin-1-yl]methylcarboxamido}methyl-5-propyl-1-phenyl-1H-pyrazole], for which the IC50 was determined as 1.81 ± 0.09 µM.
On to `Cc1cc(CNCC(=O)N2CCN(C(c3ccccc3)c3ccccc3)CC2)nn1-c1ccccc1` [Compound No. 65, 3-[(4-benzhydrylpiperazin-1-yl)carbonylmethylamino]methyl-5-methyl-1-phenyl-1H-pyrazole], for which the IC50 was 3.5 ± 0.35 µM.
In the case of `CC(C)Cc1cc(CNCC(=O)N2CCN(Cc3ccc(Cl)c(Cl)c3)CC2)nn1-c1ccccc1` [Compound No. 75, 3-{[4-(3,4-dichlorobenzyl)piperazin-1-yl]carbonylmethylamino}methyl-5-isobutyl-1-phenyl-1H-pyrazole] it was 0.3 ± 0.01 µM; in that of `Cc1cccc(N2CCN(C(=O)CNCc3cc(C)n(-c4ccccc4)n3)CC2)c1C` [Compound No. 64, 3-{[4-(2,3-dimethylphenyl)piperazin-1-yl]carbonylmethylamino}methyl-5-methyl-1-phenyl-1H-pyrazole], 2.06 ± 1.2 µM; in that of `CC(C)Cc1cc(CNC(=O)CN2CCN(c3ccccc3)CC2)nn1-c1ccccc1` [Compound No. 9, 3-[(4-phenylpiperazin-1-yl)methylcarboxamido]methyl-5-isobutyl-1-phenyl-1H-pyrazole], 3.54 ± 0.09 µM.
Regarding `Cc1cc(CNC(=O)CN2CCN(C(c3ccccc3)c3ccccc3)CC2)nn1-c1ccccc1` [Compound No. 3, 3-[(4-benzhydrylpiperazin-1-yl)methylcarboxamido]methyl-5-methyl-1-phenyl-1H-pyrazole], the IC50 was 1.83 ± 0.12 µM.
For `Cc1cccc(N2CCN(CC(=O)NCc3cc(C)n(-c4ccccc4)n3)CC2)c1C` [Compound No. 1, 3-{[4-(2,3-dimethyl)phenylpiperazin-1-yl]methylcarboxamido}methyl-5-methyl-1-phenyl-1H-pyrazole], the IC50 stood at 0.02 ± 0.01 µM.
As for `CC(C)Cc1cc(CNC(=O)CN2CCN(c3ccccn3)CC2)nn1-c1ccccc1` [Compound No. 36, 3-{[4-(2-pyridyl)piperazin-1-yl]methylcarboxamido}methyl-5-isobutyl-1-phenyl-1H-pyrazole], the IC50 amounted to 9.42 ± 0.7 µM.

One may read the IC50 as the midpoint of a concentration-inhibition curve.
